Earlier results as cited in US11123293B2, “Liposomal formulation for joint lubrication” (MOEBIUS MEDICAL LTD., priority 2017, dated 2021).
Several values for one entry are separate records, joined by “and”; a condition that tells them apart may be missing. Equal values may be shown once. Read-outs that look alike come from different tables or passages of the source.

Tests used:
[1] = pure phospholipid, literature value
[2] = tested on: joints of OA patients; conditions: injection into joints of OA patients, without major side effects
[3] = tested on: rabbit's knee; conditions: solution, intra-articular injection into a rabbit's knee

| Compound | Tm [1] | other results |
| --- | --- | --- |
| CCCCCCCCCCCCCCC(=O)OC[C@H](COP(=O)([O-])OCC[N+](C)(C)C)OC(=O)CCCCCCCCCCCCCC [1,2-dipentadecanoyl-sn-glycero-3-phosphocholine] | 33.0 °C | – |
| CCCCCCCCCCCCC/C=C/[C@@H](O)[C@H](COP(=O)([O-])OCC[N+](C)(C)C)NC(=O)CCCCCCCCCCCCCCC [D-erythro C16, N-palmitoyl-D-erythro-sphingosylphosphorylcholine] | 41.0 °C | Tm ([1]; listed as N-palmitoyl SM): 41 °C |
| CCCCCCCCCCCCCC(=O)OC[C@H](COP(=O)([O-])OCC[N+](C)(C)C)OC(=O)CCCCCCCCCCCCC [DMPC, 1,2-dimyristoyl-sn-glycero-3-phosphocholine] | 23 °C and ~24 °C | – |
| CCCCCCCCCCCCCC(=O)OC[C@H](COP(=O)(O)OCC(O)CO)OC(=O)CCCCCCCCCCCCC (some centres unmarked) [DMPG, 1,2-dimyristoyl-sn-glycero-3-phosphorylglycerol] | 23 °C | – |
| CCCCCCCCCCCCCCCC(=O)OC[C@H](COP(=O)([O-])OCC[N+](C)(C)C)OC(=O)CCCCCCCCCCCCCCC [DPPC, 1,2-dipalmitoyl-sn-glycero-3-phosphocholine] | 41 °C and 41.4 °C | mobility improvement lasting [2]: up to 14 weeks |
| CCCCCCCCCCCCCCCC(=O)OC[C@H](COP(=O)(O)OCC(O)CO)OC(=O)CCCCCCCCCCCCCCC (some centres unmarked) [DPPG, 1,2-dipalmitoyl-sn-glycero-3-phosphorylglycerol] | 41 °C | – |
| CCCCCCCCCCCCCCCCCC(=O)OC[C@H](COP(=O)([O-])OCC[N+](C)(C)C)OC(=O)CCCCCCCCCCCCCCCCC [DSPC, 1,2-distearoyl-sn-glycero-3-phosphocholine] | 55 °C | – |
| OCC(O)CO [glycerol] | – | prevention of joint irritation [3]: did not prevent irritation |
| OC[C@@H](O)[C@@H](O)[C@H](O)[C@H](O)CO [mannitol] | – | prevention of joint irritation [3]: did not prevent irritation |
